Experimental findings from the SangsterLogP compilation are described below.

In general, logP refers to a log measure of how a compound divides between an organic and an aqueous phase. For orientation: logD means the decadic logarithm of the distribution of all forms, ionised or not, between an organic phase and buffer at a given pH.

Assay in one data set: not given
Details: not given
The compound `NC(=O)c1ccc2c(ccn2CC(=O)Oc2ccccc2-c2ccccc2)c1` had a logP of 2.3. Still for that read-out and setting: the same measure for `CCCCCCCCc1ccc(OC(=O)Cn2ccc3cc(C(N)=O)ccc32)cc1`: 5.5. With `O=C(Cn1ccc2cc(C(=O)O)ccc21)Oc1ccc(-c2ccccc2)cc1`, the logP was found to be 3.2. Same read-out and setting: the same measure for `O=C(Cn1ccc2cc(C(=O)O)ccc21)Oc1cccc(-c2ccccc2)c1`: 3.1; for `CCCCCCCCCCOc1ccc(OC(=O)Cn2ccc3cc(C(=O)O)ccc32)cc1`: 7.1.

The next data set in a line: method code SF-AS, from Frater-Schröder, M.; Alder, S.; Zbinden, G. (1976). Neurotoxic effects of pyridoxine and analogs in rats. Proc. Eur. Soc. Toxicol, 17, 277-284. The following applies: pH 7.4.
`CCCCN(CCCC)Cc1c(CO)cnc(C)c1O`: the logD is 1.69.

`Cc1ncc(CO)c(Cc2ccc(N(C)C)cc2)c1O` registered a logD of 0.81.

As for `Cc1ncc(CO)c(COCCC(C)C)c1O`, the log distribution coefficient (logD) was 0.83. Still for that read-out and setting: in the case of `CCCCOCc1c(CO)cnc(C)c1O` it was 1.34; in that of `Cc1ncc(CO)c2c1OC1=CCCCC1=C2`, 1.98.

Assay in a further data set: not given
Details: not given
The source holds these as a separate data set.
As to `CCOCn1c(Cc2ccccc2)c(C(C)C)c(=O)[nH]c1=O`, the logP was determined as 2.35.

As for `CCc1c(Sc2ccccc2)n(COCc2ccccc2)c(=O)[nH]c1=O`, the logP was 3.23. Regarding `CCOCn1c(Cc2cc(C)cc(C)c2)c(CC)c(=O)[nH]c1=O`, the logP came to 2.78. Still for that read-out and setting: the same measure for `CCOCn1c(Sc2ccccc2)c(CC)c(=O)[nH]c1=O`: 2.11; for `CCOCn1c(S)nc(=O)c(CC)c1Sc1ccccc1`: 3.05.

The nature of another data set: method code SF, from DOI: 10.1016/j.bcp.2004.09.021, PMID: 15627482. The following applies: pH 7.0.
Turning to `CCCCC1(C(=O)OC(C)(C)C)CCC=[N+]1[O-]` (stereo not given), the logD is 1.36. Same read-out and setting: the same measure for `CCCCOC(=O)C1(CCCC)CCC=[N+]1[O-]` (stereo not given): 1.75; for `CCCCC1(C(=O)OC(C)C)CCC=[N+]1[O-]` (stereo not given): 1.07; for `CCCCC1(C(=O)OCC)CCC=[N+]1[O-]` (stereo not given): 0.69.

`CCCCC1(C(=O)OCC)C(CC)C(C)C=[N+]1[O-]` (stereo not given) returned a logD of 1.01.

Assay in the next data set: not given
Details: not given
This is another data set of the same source.
`CC1(C)C=Cc2cc3c(cc2O1)OC1c2ccc(O)cc2OCC31O` (stereo not given) gave a logP of 2.62. On the same count and under the same terms, the same measure for `COc1ccc([C@@H]2COc3cc(O)ccc3C2)c(OC)c1`: 3.21; for `O=c1oc2cc(O)ccc2c2oc3cc(O)ccc3c12`: 2.69. Regarding `COc1ccc2c(c1)OCc1c-2oc2cc3c(cc12)C=CC(C)(C)O3`, the logP was 3.18.

For the compound `Oc1ccc2c(c1)OC[C@H]1c3cc4c(cc3O[C@@H]21)OCO4`, the logP was 2.61.

Another data set can be described thus: method code SF-GLC, from DOI: 10.1021/es60155a010.
Details: not given
For `Cc1ccc(OP(=O)(Oc2ccc(C)cc2)Oc2ccc(C)cc2)cc1`, the logP turned out to be 5.11.

In turn, `CC(C)(C)c1ccc(OP(=O)(Oc2ccccc2)Oc2ccccc2)cc1` had a logP of 5.12. On the same count and under the same terms, in the case of `CCCCC(CC)COP(=O)(OCC(CC)CCCC)OCC(CC)CCCC` (stereo not given) it was 4.23.

The compound `CC(C)c1ccc(OP(=O)(Oc2ccccc2)Oc2ccccc2)cc1` came in with a logP of 5.31.

`CC(C)CCCCCCCOP(=O)(Oc1ccccc1)Oc1ccccc1` had a logP of 5.44.

Another data set can be described thus: method code SF-HPLC, from DOI: 10.1023/a:1015956705293, PMID: 3244625.
Details: not given
`C[C@]12CCC(=O)C=C1CC[C@@H]1[C@@H]2[C@@H](O)C[C@@]2(C)[C@H]1CC[C@]2(O)C(=O)COC(=O)CCCCCO`: the logP turned out to be 2.79. Consider `COC(=O)CCC(=O)OCC(=O)C1(O)CCC2C3CCC4=CC(=O)CCC4(C)C3C(O)CC21C` (stereo not given), for which the logP is 2.58. `CN(C)C(=O)CCC(=O)OCC(=O)[C@@]1(O)CC[C@H]2[C@@H]3CCC4=CC(=O)CC[C@]4(C)[C@H]3[C@@H](O)C[C@@]21C`: the logP amounted to 2.03.

The data set is the same for the next values; noted with them: pH 2.5.
For `CC12CCC(=O)C=C1CCC1C2C(O)CC2(C)C1CCC2(O)C(=O)COC(=O)CCC(=O)O` (stereo not given), the logD was 2.11.

Still in this data set, the particulars now being: pH 3.3.
Regarding `C[C@]12CCC(=O)C=C1CC[C@@H]1[C@@H]2[C@@H](O)C[C@@]2(C)[C@H]1CC[C@]2(O)C(=O)COC(=O)CCCCCC(=O)O`, the logD was 3.26.

Assay in another data set: not given
The following applies: pH 7.4.
Turning to `COc1cc([N+](=O)[O-])cc(CC(=O)N2CCC(n3c(=O)[nH]c4ccccc43)CC2)c1OC`, the logD is 2.4. Still for that read-out and setting: the same measure for `O=C(CCc1cccc2c1OCO2)N1CCC2(CC1)C(=O)NCN2c1ccccc1`: 2.8; for `O=C(Cc1c[nH]c2ccc(Br)cc12)N1CCN(c2ccc([N+](=O)[O-])c3nonc23)CC1`: 3; for `COc1cc([N+](=O)[O-])cc(C=CC(=O)N2CCC3(CC2)C(=O)NCN3c2ccccc2)c1OC`: 3.

For the compound `O=C(OCc1ccc2snnc2c1)N1CCC2(CC1)C(=O)NCN2c1ccccc1`, the logD was 3.4.

A further data set can be described thus: method code SF-AS, from DOI: 10.1002/etc.5620180606.
Details: not given
Take `Nc1c(Oc2ccccc2)c(Oc2ccccc2)c(N)c2c1C(=O)c1ccccc1C2=O`: the logP came to 5.19. `Cc1c(O)c(C#N)c(C)c(N=Nc2ccc(Cl)c(Cl)c2)c1O` returned a log partition coefficient (logP) of 3.74. The same measure, in the same setting: in the case of `CC(=O)CCC(C#N)Nc1ccc(N=Nc2nc3ccc([N+](=O)[O-])cc3s2)cc1` (stereo not given) it was 4.08; in that of `O=[N+]([O-])c1cc(S(=O)(=O)Nc2ccccc2)ccc1Nc1ccccc1`, 3.62; in that of `COc1cc(/N=N/c2c(Br)cc([N+](=O)[O-])cc2[N+](=O)[O-])c(NC(C)=O)cc1N(CCOC(C)=O)CCOC(C)=O`, 4.44.

The nature of a further data set: method code SF, from DOI: 10.1021/jm020886c, PMID: 12852752. The following applies: pH 7.4.
`O=c1[nH]c2c(O)ccc(CCNCCCS(=O)(=O)CCOCCc3ccccc3)c2s1` showed a logD of 1.13. Turning to `CN(CCCSCCOCCc1ccccc1)CCc1ccc(O)c2[nH]c(=O)sc12`, the logD worked out at 3.53. The same measure, in the same setting: the same measure for `CC(C)(CNCCc1ccc(O)c2[nH]c(=O)sc12)CSCCOCCc1ccccc1`: 3.44; for `O=c1[nH]c2c(O)ccc(CCNCCCS(=O)(=O)CCCOCc3ccccc3)c2s1`: 1.34. The same measure, in the same setting: in the case of `CN(CCCNCCc1ccc(O)c2[nH]c(=O)sc12)S(=O)(=O)CCCOCCc1ccccc1` it was 1.24.

A short description of another data set: from Jayashree, Bs.; Sahu, A.; MM, S.; Venugopala, K. (2006). Synthesis, characterization and determination of partition coefficient of some triazolo thiadiazinyl chlorocoumarin derivatives for their …. The following applies: pH 7.4.
In turn, `O=c1oc2ccc(Cl)cc2cc1C1=Nn2c(nnc2-c2ccncc2)SC1` came in with a logD of 1.18.

`O=c1oc2ccc(Cl)cc2cc1C1=Nn2c(nnc2-c2ccccc2Cl)SC1`: the logD came to 1.53. The same measure, in the same setting: the same measure for `O=c1oc2ccc(Cl)cc2cc1C1=Nn2c(COc3ccc(Cl)cc3)nnc2SC1`: 1.33; for `O=c1oc2ccc(Cl)cc2cc1C1=Nn2c(nnc2-c2ccc(Cl)cc2)SC1`: 1.49. With `O=c1oc2ccc(Cl)cc2cc1C1=Nn2c(nnc2-c2ccc(Br)cc2)SC1`, the logD amounted to 1.51.

Assay in another data set: not given
Details: not given
The source holds these as a separate data set.
As to `Ic1ccc2nc(-c3ccc(-c4cnco4)cc3)cn2c1`, the logP worked out at 3.64. Still for that read-out and setting: the same measure for `Ic1ccc2nc(-c3ccc(-c4nccs4)cc3)cn2c1`: 3.06. On the same count and under the same terms, the same measure for `Ic1ccc2nc(-c3ccc(-c4cc[nH]n4)cc3)cn2c1`: 3.2; for `Ic1ccc2nc(-c3ccc(-c4ncon4)cc3)cn2c1`: 3.12. Still for that read-out and setting: in the case of `CN(C)c1ccc(-c2cn3cc(I)ccc3n2)cc1` it was 4.03.

The nature of another data set: method code SF, from DOI: 10.1021/jm00167a034, PMID: 2329572. The following applies: pH 7.4.
The compound `CC1=C(/C=C/C(C)=C/C=C/C(C)=C/C(=O)OC[C@H]2O[C@@H](n3cc(C)c(=O)[nH]c3=O)C[C@@H]2N=[N+]=[N-])C(C)(C)CCC1` returned a logD of 1.25. Same read-out and setting: the same measure for `Cc1cn(C2CC(N=[N+]=[N-])C(COC(=O)C(N)Cc3ccccc3)O2)c(=O)[nH]c1=O` (stereo not given): 0.52; for `Cc1cn([C@H]2C[C@H](N=[N+]=[N-])[C@@H](COC(=O)CN3CCN(c4ccccc4)CC3)O2)c(=O)[nH]c1=O`: 0.96. As to `Cc1cn([C@H]2C[C@H](N=[N+]=[N-])[C@@H](COC(=O)C3=CN(C)C=CC3)O2)c(=O)[nH]c1=O`, the logD was 0.86. In turn, `Cc1cn([C@H]2C[C@H](N=[N+]=[N-])[C@@H](COC(=O)CN3CCOCC3)O2)c(=O)[nH]c1=O` displayed a logD of 0.34.

The next data set in a line: method code SF-AS, from DOI: 10.1139/cjpp-75-12-1362, PMID: 9534947.
Details: not given
As to `O=C(N/N=C/c1c(O)ccc2ccccc12)c1ccc(O)cc1`, the logP was determined as 3.95. The same measure, in the same setting: in the case of `O=C(N/N=C/c1c(O)ccc2ccccc12)c1ccco1` it was 3.41; in that of `O=C(N/N=C/c1c(O)ccc2ccccc12)c1ccc([N+](=O)[O-])cc1`, 3.58.

`COc1ccc(C(=O)N/N=C\c2c(O)ccc3ccccc23)cc1` yielded a logP of 4.06. The same measure, in the same setting: in the case of `CC(=O)N/N=C/c1c(O)ccc2ccccc12` it was 2.91.

Assay in a further data set: not given
Details: not given
This is another data set of the same source.
As for `COC(=O)CCC1=CC2(CCC(=O)OC)OOC1(C)c1ccccc12` (stereo not given), the logP is 2.06.

Regarding `CC12C=CC(CCC(=O)O)(OO1)c1ccccc12` (stereo not given), the logP was 1.19. For `COC(=O)CCC12C=CC(C)(OO1)c1ccccc12` (stereo not given), the logP was determined as 2.13. Same read-out and setting: the same measure for `CC12C=CC(CCS(N)(=O)=O)(OO1)c1ccccc12` (stereo not given): 1.66; for `COC(=O)CCC12C=CC(CCC(=O)OC)(OO1)c1ccccc12`: 2.08.
